Converted amounts (≈) assume the structure as drawn.
Assays:
[1] = species: Oryctolagus cuniculus; experiment: The compound was evaluated for fall in intraocular pressure (IOP) of Normotensive rabbits after treatment with one drop (50 microL) of a 2% solution at 0 min (pH 6.5); format: functional, Eye
[2] = target: T1, Carbonic anhydrase 4 (Bos taurus, UniProt Q95323)
T1 sequence (Q95323 whole entry): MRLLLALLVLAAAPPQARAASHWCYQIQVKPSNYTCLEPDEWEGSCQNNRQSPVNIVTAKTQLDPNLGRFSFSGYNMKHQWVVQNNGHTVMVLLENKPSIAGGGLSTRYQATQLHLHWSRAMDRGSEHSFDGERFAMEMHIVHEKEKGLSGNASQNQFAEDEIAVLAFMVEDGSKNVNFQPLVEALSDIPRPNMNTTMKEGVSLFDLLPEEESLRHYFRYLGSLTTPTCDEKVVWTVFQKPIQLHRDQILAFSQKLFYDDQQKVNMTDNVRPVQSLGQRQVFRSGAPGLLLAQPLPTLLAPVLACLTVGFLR
Description: Inhibitory activity against bovine carbonic anhydrase IV (CA4), isolated from bovine lung microsomes

[3] = species: Oryctolagus cuniculus; experiment: The compound was evaluated for fall in intraocular pressure (IOP) of Normotensive rabbits after treatment with one drop (50 microL) of a 2% solution at 90 min (pH 6.5); format: functional, Eye
[4] = target: Carbonic anhydrase 1 (Homo sapiens, UniProt P00915)
Chain of Carbonic anhydrase 1 (P00915 whole entry): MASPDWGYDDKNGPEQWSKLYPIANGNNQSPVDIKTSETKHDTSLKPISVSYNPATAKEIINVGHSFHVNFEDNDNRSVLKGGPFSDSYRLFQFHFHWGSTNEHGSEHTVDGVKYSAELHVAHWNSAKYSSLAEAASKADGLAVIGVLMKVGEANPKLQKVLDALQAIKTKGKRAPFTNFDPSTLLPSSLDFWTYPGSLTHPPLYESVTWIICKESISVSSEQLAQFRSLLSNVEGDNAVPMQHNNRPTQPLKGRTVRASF
Description: Inhibitory activity against human recombinant carbonic anhydrase I (CA1)

[5] = species: Oryctolagus cuniculus; experiment: The compound was evaluated for fall in intraocular pressure (IOP) of Normotensive rabbits after treatment with one drop (50 microL) of a 2% solution at 30 min (pH 6.5); format: functional, Eye
[6] = species: Oryctolagus cuniculus; experiment: The compound was evaluated for fall in intraocular pressure (IOP) of Normotensive rabbits after treatment with one drop (50 microL) of a 2% solution at 60 min (pH 6.5); format: functional, Eye
[7] = species: Oryctolagus cuniculus; experiment: The compound was evaluated for fall in intraocular pressure (IOP) of Normotensive rabbits after treatment with one drop (50 microL) of a 2% solution at 60 min (pH 6.4); format: functional, Eye
[8] = species: Oryctolagus cuniculus; experiment: The compound was evaluated for fall in intraocular pressure (IOP) of Normotensive rabbits after treatment with one drop (50 microL) of a 2% solution at 0 min (pH 6.4); format: functional, Eye
[9] = species: Oryctolagus cuniculus; experiment: The compound was evaluated for fall in intraocular pressure (IOP) of Normotensive rabbits after treatment with one drop (50 microL) of a 2% solution at 90 min (pH 6.4); format: functional, Eye
[10] = species: Oryctolagus cuniculus; experiment: The compound was evaluated for fall in intraocular pressure (IOP) of Normotensive rabbits after treatment with one drop (50 microL) of a 2% solution at 30 min (pH 6.4); format: functional, Eye
[11] = octanol/water
Description: Partition coefficient (logD) (chloroform/buffer)

[12] = not given; remark: listed apart in the source
[13] = species: Oryctolagus cuniculus; experiment: The compound was evaluated for fall in intraocular pressure (IOP) of Normotensive rabbits after treatment with one drop (50 microL) of a 2% solution at 0 min (pH 5.6); format: functional, Eye
[14] = species: Oryctolagus cuniculus; experiment: The compound was evaluated for fall in intraocular pressure (IOP) of Normotensive rabbits after treatment with one drop (50 microL) of a 2% solution at 90 min (pH 5.6); format: functional, Eye
[15] = species: Oryctolagus cuniculus; experiment: The compound was evaluated for fall in intraocular pressure (IOP) of Normotensive rabbits after treatment with one drop (50 microL) of a 2% solution at 30 min (pH 5.6); format: functional, Eye
[16] = physchem; conditions: buffer, pH 7.4
[17] = species: Oryctolagus cuniculus; experiment: The compound was evaluated for fall in intraocular pressure (IOP) of Normotensive rabbits after treatment with one drop (50 microL) of a 2% solution at 60 min (pH 5.6); format: functional, Eye
[18] = species: Oryctolagus cuniculus; experiment: The compound was evaluated for fall in intraocular pressure (IOP) of Glaucomatous rabbits after treatment with one drop (50 microL) of a 2% solution at 60 min (pH 6.4); format: functional, Eye
[19] = species: Oryctolagus cuniculus; experiment: The compound was evaluated for fall in intraocular pressure (IOP) of Glaucomatous rabbits after treatment with one drop (50 microL) of a 2% solution at 30 min (pH 6.4); format: functional, Eye
[20] = species: Oryctolagus cuniculus; experiment: The compound was evaluated for fall in intraocular pressure (IOP) of Narmotensive rabbits after treatment with one drop (50 microL) of a 2% solution at 90 min (pH 6.4); format: functional, Eye
[21] = species: Oryctolagus cuniculus; experiment: The compound was evaluated for fall in intraocular pressure (IOP) of Narmotensive rabbits after treatment with one drop (50 microL) of a 2% solution at 60 min (pH 6.4); format: functional, Eye
[22] = species: Oryctolagus cuniculus; experiment: The compound was evaluated for fall in intraocular pressure (IOP) of Narmotensive rabbits after treatment with one drop (50 microL) of a 2% solution at 30 min (pH 6.4); format: functional, Eye
[23] = species: Oryctolagus cuniculus; experiment: The compound was evaluated for fall in intraocular pressure (IOP) of Narmotensive rabbits after treatment with one drop (50 microL) of a 2% solution at 0 min (pH 6.4); format: functional, Eye
[24] = species: Oryctolagus cuniculus; experiment: The compound was evaluated for fall in intraocular pressure (IOP) of Glaucomatous rabbits after treatment with one drop (50 microL) of a 2% solution at 90 min (pH 6.4); format: functional, Eye
[25] = species: Oryctolagus cuniculus; experiment: The compound was evaluated for fall in intraocular pressure (IOP) of Glaucomatous rabbits after treatment with one drop (50 microL) of a 2% solution at 0 min ((pH 6.4); format: functional, Eye
[26] = species: Oryctolagus cuniculus; experiment: The compound was evaluated for fall in intraocular pressure (IOP) of Normotensive rabbits after treatment with one drop (50 microL) of a 2% solution at 90 min (pH 5.5); format: functional, Eye
[27] = species: Oryctolagus cuniculus; experiment: The compound was evaluated for fall in intraocular pressure (IOP) of Normotensive rabbits after treatment with one drop (50 microL) of a 2% solution at 0 min (pH 5.5); format: functional, Eye
[28] = species: Oryctolagus cuniculus; experiment: The compound was evaluated for fall in intraocular pressure (IOP) of Normotensive rabbits after treatment with one drop (50 microL) of a 2% solution at 30 min (pH 5.5); format: functional, Eye
[29] = species: Oryctolagus cuniculus; experiment: The compound was evaluated for fall in intraocular pressure (IOP) of Normotensive rabbits after treatment with one drop (50 microL) of a 2% solution at 60 min (pH 5.5); format: functional, Eye

CN(CC(=O)Nc1ccc(S(N)(=O)=O)cc1F)C(=N)N
Change in IOP [1]: 0 mmHg | Ki [2]: 39 nM | Change in IOP [3]: 5 mmHg | Ki [4]: 510 nM | Change in IOP [5]: 3 mmHg | Change in IOP [6]: 7.2 mmHg

CCN(C(=O)CN(C)C(=N)N)C1CC(C)S(=O)(=O)c2sc(S(N)(=O)=O)cc21 (configuration not stated)
Change in IOP [7]: 9.1 mmHg | Change in IOP [8]: 0 mmHg | Ki [2]: 27 nM | Change in IOP [9]: 7.6 mmHg | Ki [4]: 75 nM | Change in IOP [10]: 5 mmHg

CC(=O)/N=c1/sc(S(N)(=O)=O)nn1C [METHAZOLAMIDE]
kin: 13 h⁻¹ | logD [11]: 0.06 | kin [12]: 1.9 h⁻¹

CCNC1CC(C)S(=O)(=O)c2sc(S(=O)(=O)NC(=O)CNC)cc21 (configuration not stated)
kin: 7.8 h⁻¹ | logD [11]: 1.785 | Change in IOP [13]: 0 mmHg | Change in IOP [14]: 5.5 mmHg | Change in IOP [15]: 3.1 mmHg | Ki [2]: 30 nM | solubility [16]: 62 mM (≈ 24.5 mg/mL) | Ki [4]: 78 nM | Change in IOP [17]: 7 mmHg | kin [12]: 3.9 h⁻¹

NCC(=O)NCC(=O)Nc1nnc(S(N)(=O)=O)s1
Change in IOP [18]: 12 mmHg | Change in IOP [19]: 7.7 mmHg | Change in IOP [20]: 8.9 mmHg | Ki [2]: 45 nM | Change in IOP [21]: 9 mmHg | Ki [4]: 320 nM | Change in IOP [22]: 5.6 mmHg | Change in IOP [23]: 0 mmHg | Change in IOP [24]: 13.8 mmHg | Change in IOP [25]: 0 mmHg

NCC(=O)Nc1nnc(S(N)(=O)=O)s1
Ki [2]: 55 nM | Change in IOP [26]: 4.6 mmHg | Change in IOP [27]: 0 mmHg | Ki [4]: 350 nM | Change in IOP [28]: 2.9 mmHg

NCC(=O)NCC(=O)NS(=O)(=O)c1nc2ccc(OCCO)cc2s1
kin: 6.4 h⁻¹ | Change in IOP [7]: 7 mmHg | logD [11]: 1.85 | Change in IOP [8]: 0 mmHg | Ki [2]: 18 nM | solubility [16]: 50 mM (≈ 19.4 mg/mL) | Change in IOP [9]: 5.4 mmHg | Ki [4]: 9 nM | Change in IOP [10]: 3.3 mmHg | kin [12]: 3.1 h⁻¹

CCN(C(=O)CNC(=O)CN)C1CC(C)S(=O)(=O)c2sc(S(N)(=O)=O)cc21 (configuration not stated)
Change in IOP [7]: 8.7 mmHg | Change in IOP [8]: 0 mmHg | Ki [2]: 31 nM | Change in IOP [9]: 6.9 mmHg | Ki [4]: 90 nM | Change in IOP [10]: 4.9 mmHg

CNCC(=O)Nc1cc(Cl)c(S(N)(=O)=O)cc1S(N)(=O)=O
kin: 7.9 h⁻¹ | logD [11]: 1.569 | Ki [2]: 50 nM | Change in IOP [26]: 4.5 mmHg | solubility [16]: 54 mM (≈ 19.3 mg/mL) | Change in IOP [27]: 0 mmHg | Ki [4]: 350 nM | Change in IOP [28]: 2.5 mmHg | Change in IOP [29]: 5.2 mmHg | kin [12]: 4.6 h⁻¹

CNCC(=O)Nc1ccc(S(=O)(=O)Nc2ccc(S(N)(=O)=O)cc2)cc1
Change in IOP [1]: 0 mmHg | Ki [2]: 62 nM | Change in IOP [3]: 5.5 mmHg | Ki [4]: 50 nM | Change in IOP [5]: 2.5 mmHg | Change in IOP [6]: 6.3 mmHg

NCC(=O)NCCC(=O)Nc1nnc(S(N)(=O)=O)s1
Ki [2]: 10 nM | Change in IOP [26]: 8.4 mmHg | Change in IOP [27]: 0 mmHg | Ki [4]: 21 nM | Change in IOP [28]: 5 mmHg | Change in IOP [29]: 9.3 mmHg

CNCC(=O)/N=c1\sc(S(N)(=O)=O)nn1C
Change in IOP [1]: 0 mmHg | Ki [2]: 43 nM | Change in IOP [3]: 5.5 mmHg | Ki [4]: 290 nM | Change in IOP [5]: 3.3 mmHg | Change in IOP [6]: 6.2 mmHg

CNCC(=O)Nc1nccc(Nc2ccc(S(N)(=O)=O)cc2)n1
Ki [2]: 60 nM | Ki [4]: 60 nM

CN(CC(=O)Nc1cccc(S(N)(=O)=O)c1)C(=N)N
Ki [2]: 177 nM | Ki [4]: 16200 nM

CNCC(=O)Nc1ccccc1S(N)(=O)=O
Ki [2]: 205 nM | Ki [4]: 20300 nM

NCC(=O)NCC(=O)NCCC(=O)Nc1nnc(S(N)(=O)=O)s1
Ki [2]: 12 nM | Ki [4]: 21 nM

CN(CC(=O)Nc1ccc(S(N)(=O)=O)cc1I)C(=N)N
Ki [2]: 69 nM | Ki [4]: 545 nM

NCC(=O)NCC(=O)Nc1ccc(S(N)(=O)=O)cc1Br
Ki [2]: 70 nM | Ki [4]: 570 nM

NCC(=O)Nc1ccc(S(=O)(=O)Nc2ccc(S(N)(=O)=O)cc2)cc1
Ki [2]: 86 nM | Ki [4]: 62 nM

NCC(=O)NCC(=O)Nc1cccc(S(N)(=O)=O)c1
Ki [2]: 235 nM | Ki [4]: 17000 nM

Cn1nc(S(N)(=O)=O)s/c1=N\C(=O)CN
Ki [2]: 70 nM | Ki [4]: 335 nM

NCC(=O)NCC(=O)Nc1c(S(N)(=O)=O)cc(S(N)(=O)=O)c(Cl)c1Cl
kin: 11.5 h⁻¹ | Change in IOP [7]: 7 mmHg | logD [11]: 2.133 | Change in IOP [8]: 0 mmHg | Ki [2]: 56 nM | solubility [16]: 59 mM (≈ 25.6 mg/mL) | Change in IOP [9]: 4.8 mmHg | Ki [4]: 500 nM | Change in IOP [10]: 3.2 mmHg | kin [12]: 4.8 h⁻¹

CNCC(=O)NS(=O)(=O)c1ccc(CO)cc1
Ki [2]: 123 nM | Ki [4]: 1500 nM

NCC(=O)NCC(=O)Nc1ccc(S(=O)(=O)Nc2ccc(S(N)(=O)=O)cc2)cc1
Ki [2]: 66 nM | Ki [4]: 54 nM

CNCC(=O)Nc1ccc(S(N)(=O)=O)cc1Cl
Ki [2]: 62 nM | Ki [4]: 510 nM

CNCC(=O)Nc1ccc(S(N)(=O)=O)cc1F
Ki [2]: 46 nM | Ki [4]: 500 nM

CN(CC(=O)NCCc1ccc(S(N)(=O)=O)cc1)C(=N)N
Ki [2]: 64 nM | Ki [4]: 775 nM
